Results on 15 compounds are retold here after PMC4996523, “Biophysical and Pharmacological Characterization of Nav1.9 Voltage Dependent Sodium Channels Stably Expressed in HEK-293 Cells” (PLoS ONE, 2016).

Several values for one entry are separate records, joined by “and”; a condition that tells them apart may be missing. Identical values can stand only once. Entries after “also recorded” stand apart in the source; their conditions may differ. Like-named read-outs stand apart in the source and are kept apart here.

Holding throughout (format): cell-based
The target in one assay is T1, Human Nav1.9 (Homo sapiens, UniProt Q9UI33).
T1 construct: expressed in transfected cells; host or cells: HEK-293 stably expressing human β1/β2
Put plainly: PatchXpress whole-cell voltage clamp, inhibition of human Nav1.9 (+β1/β2) currents in HEK-293 cells. The arrangement: key to Activity on human Nav1.9 at single concentration: NA = not active. Conditions: for Increase in potency at the most depolarized membrane potential: -90 mV vs -140 mV (resting to half-inactivated channels).

The target of assay [1] is T2, Human Nav1.9 F1592A/Y1599A (Homo sapiens, UniProt Q9UI33, F1592A/Y1599A).
T2 construct: expressed in transfected cells; host or cells: HEK-293-β1/β2
Put plainly: PatchXpress whole-cell voltage clamp, inhibition of the human Nav1.9 F1592A/Y1599A local anesthetic site mutant in HEK-293 cells. Conditions: for IC50: read-out: IC50 for inhibition of human Nav1.9 F1592A/Y1599A (LAM).

The target of the next assay is T3, Human Nav1.7 (Homo sapiens, UniProt Q15858).
T3 construct: expressed in transfected cells; host or cells: HEK-293-β1/β2
Nature of the assay: PatchXpress whole-cell voltage clamp, inhibition of human Nav1.7 in HEK-293 cells.

Another assay concerns the target T4, Nav1.9 K799N (Homo sapiens, UniProt Q9UI33, K799N).
T4 construct: expressed in transfected cells; host or cells: HEK-293-β1/β2
Nature of the assay: PatchXpress whole-cell voltage clamp, inhibition of the human Nav1.9 K799N mutant in HEK-293 cells. The settings on record: for IC50: protocol of Fig 2.

A further assay has as its target T5, Nav1.7 N945K (Homo sapiens, UniProt Q15858, N956K).
T5 construct: expressed in transfected cells; host or cells: HEK-293-β1/β2
Nature of the assay: PatchXpress whole-cell voltage clamp, inhibition of the human Nav1.7 N945K mutant in HEK-293 cells.

Another assay concerns the target Human Nav1.8 (Homo sapiens, UniProt Q9Y5Y9). Put plainly: Whole-cell voltage clamp, inhibition of human Nav1.8. Conditions: ~50% inactivated.
A further assay addresses T6, Mouse Nav1.9 (Mus musculus, UniProt Q9R053).
T6 construct: expressed in transfected cells; host or cells: HEK-293-mouse β1/β2
Put plainly: PatchXpress whole-cell voltage clamp, inhibition of mouse Nav1.9 (+mouse β1/β2) in HEK-293 cells.

The target of another assay is T7, Rat Nav1.9 (Rattus norvegicus, UniProt O88457).
T7 construct: expressed in transfected cells; host or cells: HEK-293-rat β1/β2
Put plainly: PatchXpress whole-cell voltage clamp, inhibition of rat Nav1.9 (+rat β1/β2) in HEK-293 cells.

Where [2] appears, read: holding potential -120 mV (~25% inactivation), 40 ms step to -40 mV every 20 s, HEK-293 + β1/β2, 500 μM GTP-γ-S in pipette, read-out: IC50 for inhibition of human Nav1.9.
Setting [3] is: Nav1.9 F1592A/Y1599A vs Nav1.9 WT.

T1 sequence (Q9UI33 whole entry): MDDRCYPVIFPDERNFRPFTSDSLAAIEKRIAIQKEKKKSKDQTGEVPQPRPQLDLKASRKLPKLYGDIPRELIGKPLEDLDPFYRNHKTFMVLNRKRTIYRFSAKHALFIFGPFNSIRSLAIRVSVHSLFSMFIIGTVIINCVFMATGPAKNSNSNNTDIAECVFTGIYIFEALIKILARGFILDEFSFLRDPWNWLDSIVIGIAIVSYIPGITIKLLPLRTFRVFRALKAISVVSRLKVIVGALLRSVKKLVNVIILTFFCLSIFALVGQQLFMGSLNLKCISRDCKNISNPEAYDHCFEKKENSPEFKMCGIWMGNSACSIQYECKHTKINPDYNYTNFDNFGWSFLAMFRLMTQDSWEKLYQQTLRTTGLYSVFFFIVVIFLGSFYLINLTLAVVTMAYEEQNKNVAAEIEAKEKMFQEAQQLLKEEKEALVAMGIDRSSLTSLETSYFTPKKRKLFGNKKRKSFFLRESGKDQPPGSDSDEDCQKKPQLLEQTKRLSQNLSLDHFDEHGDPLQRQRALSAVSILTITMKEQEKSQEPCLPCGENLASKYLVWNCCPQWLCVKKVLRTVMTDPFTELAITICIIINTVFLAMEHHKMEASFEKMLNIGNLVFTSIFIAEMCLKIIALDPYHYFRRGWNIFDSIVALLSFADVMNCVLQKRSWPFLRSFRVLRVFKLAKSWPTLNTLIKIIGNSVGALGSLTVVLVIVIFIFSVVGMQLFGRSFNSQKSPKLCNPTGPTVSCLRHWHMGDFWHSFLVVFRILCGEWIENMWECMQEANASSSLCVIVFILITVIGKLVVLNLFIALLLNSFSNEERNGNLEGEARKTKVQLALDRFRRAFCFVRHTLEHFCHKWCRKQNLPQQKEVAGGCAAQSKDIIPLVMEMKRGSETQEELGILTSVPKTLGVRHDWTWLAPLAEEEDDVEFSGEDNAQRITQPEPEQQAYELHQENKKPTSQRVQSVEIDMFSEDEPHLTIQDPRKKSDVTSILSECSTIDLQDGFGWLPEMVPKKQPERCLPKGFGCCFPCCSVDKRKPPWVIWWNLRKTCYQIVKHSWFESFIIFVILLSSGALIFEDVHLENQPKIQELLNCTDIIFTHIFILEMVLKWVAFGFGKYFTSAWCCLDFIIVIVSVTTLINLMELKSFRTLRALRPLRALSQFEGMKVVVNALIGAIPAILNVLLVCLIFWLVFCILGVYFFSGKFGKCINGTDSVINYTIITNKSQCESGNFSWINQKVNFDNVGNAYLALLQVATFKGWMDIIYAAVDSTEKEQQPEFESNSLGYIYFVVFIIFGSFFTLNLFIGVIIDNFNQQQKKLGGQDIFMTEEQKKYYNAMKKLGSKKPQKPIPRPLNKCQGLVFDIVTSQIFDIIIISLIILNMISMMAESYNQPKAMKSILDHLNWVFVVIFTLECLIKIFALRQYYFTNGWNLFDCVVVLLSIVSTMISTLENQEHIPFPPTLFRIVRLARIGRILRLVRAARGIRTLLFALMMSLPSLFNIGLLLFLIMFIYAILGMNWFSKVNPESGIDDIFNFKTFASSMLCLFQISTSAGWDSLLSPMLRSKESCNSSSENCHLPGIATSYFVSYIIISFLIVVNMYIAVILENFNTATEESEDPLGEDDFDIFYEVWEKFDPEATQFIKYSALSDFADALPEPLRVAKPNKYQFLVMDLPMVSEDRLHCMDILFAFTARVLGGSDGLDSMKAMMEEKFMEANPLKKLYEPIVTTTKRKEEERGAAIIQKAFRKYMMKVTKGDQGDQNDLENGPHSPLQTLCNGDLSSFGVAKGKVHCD
T1 sequence (Q07699 19-218 partner): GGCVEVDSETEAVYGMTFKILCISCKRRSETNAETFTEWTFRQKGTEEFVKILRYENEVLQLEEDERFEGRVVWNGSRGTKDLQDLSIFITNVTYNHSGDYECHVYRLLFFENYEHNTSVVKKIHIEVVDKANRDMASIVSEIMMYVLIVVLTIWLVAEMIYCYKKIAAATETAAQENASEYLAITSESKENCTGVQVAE
T5 sequence (Q15858 1-1977 isoform Q15858-3 N945K): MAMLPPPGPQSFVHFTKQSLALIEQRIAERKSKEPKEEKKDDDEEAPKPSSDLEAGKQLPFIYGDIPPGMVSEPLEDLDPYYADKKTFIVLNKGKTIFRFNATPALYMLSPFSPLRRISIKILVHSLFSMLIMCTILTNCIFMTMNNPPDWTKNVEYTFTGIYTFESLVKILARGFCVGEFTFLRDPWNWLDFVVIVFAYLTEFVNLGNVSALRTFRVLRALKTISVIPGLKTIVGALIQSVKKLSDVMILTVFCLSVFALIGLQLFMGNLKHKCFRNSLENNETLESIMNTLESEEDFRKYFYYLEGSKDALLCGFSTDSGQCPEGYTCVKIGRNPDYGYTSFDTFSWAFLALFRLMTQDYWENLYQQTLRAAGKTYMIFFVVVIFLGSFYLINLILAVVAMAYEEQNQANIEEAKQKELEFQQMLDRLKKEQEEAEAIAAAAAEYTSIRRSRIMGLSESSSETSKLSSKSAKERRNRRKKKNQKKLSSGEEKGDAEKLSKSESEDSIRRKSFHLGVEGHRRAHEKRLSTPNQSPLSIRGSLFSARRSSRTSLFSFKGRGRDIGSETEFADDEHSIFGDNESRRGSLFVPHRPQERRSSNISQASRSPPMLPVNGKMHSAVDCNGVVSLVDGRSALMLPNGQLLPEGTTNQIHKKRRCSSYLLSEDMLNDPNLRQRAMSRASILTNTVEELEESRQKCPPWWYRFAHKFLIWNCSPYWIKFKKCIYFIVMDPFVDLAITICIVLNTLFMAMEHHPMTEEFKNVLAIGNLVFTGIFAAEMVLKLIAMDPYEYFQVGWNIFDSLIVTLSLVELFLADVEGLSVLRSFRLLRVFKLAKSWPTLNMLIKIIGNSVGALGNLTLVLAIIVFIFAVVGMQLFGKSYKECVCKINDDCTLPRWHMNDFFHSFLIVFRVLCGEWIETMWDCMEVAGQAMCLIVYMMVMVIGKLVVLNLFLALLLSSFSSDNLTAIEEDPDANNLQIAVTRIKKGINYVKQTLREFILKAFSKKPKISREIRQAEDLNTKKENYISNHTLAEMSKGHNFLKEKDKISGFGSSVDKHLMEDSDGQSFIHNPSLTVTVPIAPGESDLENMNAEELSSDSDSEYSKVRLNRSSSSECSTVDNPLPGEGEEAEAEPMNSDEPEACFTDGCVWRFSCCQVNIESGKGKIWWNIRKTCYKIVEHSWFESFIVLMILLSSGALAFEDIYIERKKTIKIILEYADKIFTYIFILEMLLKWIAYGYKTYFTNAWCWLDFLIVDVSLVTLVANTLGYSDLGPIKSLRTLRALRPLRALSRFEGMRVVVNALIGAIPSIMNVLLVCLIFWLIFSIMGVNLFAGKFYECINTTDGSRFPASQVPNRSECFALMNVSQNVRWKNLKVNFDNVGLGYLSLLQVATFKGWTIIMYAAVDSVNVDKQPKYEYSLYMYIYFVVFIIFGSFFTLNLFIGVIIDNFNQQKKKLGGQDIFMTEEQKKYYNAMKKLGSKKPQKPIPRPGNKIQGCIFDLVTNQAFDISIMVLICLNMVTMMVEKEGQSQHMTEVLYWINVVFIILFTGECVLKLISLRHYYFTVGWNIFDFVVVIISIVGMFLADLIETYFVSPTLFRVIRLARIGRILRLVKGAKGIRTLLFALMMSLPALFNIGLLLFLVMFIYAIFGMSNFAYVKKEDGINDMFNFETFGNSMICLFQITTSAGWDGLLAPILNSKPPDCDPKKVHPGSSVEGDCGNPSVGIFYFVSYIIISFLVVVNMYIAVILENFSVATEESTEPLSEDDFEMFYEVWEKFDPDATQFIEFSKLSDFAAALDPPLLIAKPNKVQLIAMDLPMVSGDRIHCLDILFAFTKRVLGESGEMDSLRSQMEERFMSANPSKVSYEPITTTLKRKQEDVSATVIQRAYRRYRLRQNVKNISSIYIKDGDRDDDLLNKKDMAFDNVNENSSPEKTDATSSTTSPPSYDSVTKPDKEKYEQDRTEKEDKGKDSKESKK
T5 sequence (Q07699 19-218 partner): as the sequence (Q07699 19-218 partner) above
T5 sequence (O60939 30-215 partner): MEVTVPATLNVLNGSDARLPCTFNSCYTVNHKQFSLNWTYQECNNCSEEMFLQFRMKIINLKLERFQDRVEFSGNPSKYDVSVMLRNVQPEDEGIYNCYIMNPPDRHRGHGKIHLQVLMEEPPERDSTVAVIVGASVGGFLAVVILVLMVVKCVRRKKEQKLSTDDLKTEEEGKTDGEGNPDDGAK
T2 sequence (Q9UI33 whole entry F1592A/Y1599A): as the sequence (Q9UI33 whole entry) above, with F1592A, Y1599A counted along it
T2 sequence (Q07699 19-218 partner): as the sequence (Q07699 19-218 partner) above
T4 sequence (Q9UI33 whole entry K799N): as the sequence (Q9UI33 whole entry) above, with K799N counted along it
T4 sequence (Q07699 19-218 partner): as the sequence (Q07699 19-218 partner) above
T3 sequence (Q15858 1-1977 isoform Q15858-3): as the sequence (Q15858 1-1977 isoform Q15858-3 N945K) above, with K945N counted along it
T3 sequence (Q07699 19-218 partner): as the sequence (Q07699 19-218 partner) above
T3 sequence (O60939 30-215 partner): as the sequence (O60939 30-215 partner) above

For `COc1cc(NC(=O)c2ccc(-c3ccc(Cl)cc3)o2)cc(OC)c1` [A-803467], the “Inhibition of human Nav1.9 at single concentration” value at Human Nav1.9 (10 μM) is given as 30% @ 10 μM.

Consider `CN(C)CCC=C1c2ccccc2CCc2ccccc21` [Amitriptyline], for which the IC50 at Human Nav1.9 (setting [2]) amounted to 29 µM; in assay [1] (same protocol as Nav1.9 WT) it was 105 µM.

With `CCOC(=O)c1ccc(N)cc1` [Benzocaine], the IC50 at Human Nav1.7 (in figure, read-out: IC50 for inhibition of Nav1.7 WT) is 130 µM; on Human Nav1.7 (wild type, ~50% inactivated, read-out: IC50 for inhibition of human Nav1.7), 133 µM; on Human Nav1.9 (setting [2]), 351 µM; on Human Nav1.9 (in figure, holding potential -120 mV, read-out: IC50 for inhibition of human Nav1.9 WT), 400 µM; at Nav1.9 K799N (in figure) it was 300 µM; in assay [1] (in figure) it was 1800 µM. In addition, the IC50 came out at 1760 µM in assay [1] (same protocol as Nav1.9 WT) and 180 µM at Nav1.7 N945K (in figure). Besides, at Nav1.9 K799N (Nav1.9 K799N vs Nav1.9 WT), the “Effect of the K799N mutation on potency” value was “unaffected”. For the same compound, the “Effect of the F1592A/Y1599A mutation on Nav1.9 inhibition” value (from here on “Effect … on Nav1.9 inhibition”) in assay [1] (setting [3]) is “reduced”. In addition, the “Reduction in potency by the F1592A/Y1599A mutation” value in assay [1] (setting [3]) is listed as 5 fold. At Nav1.7 N945K (Nav1.7 N945K vs Nav1.7 WT), the “Effect of the N945K mutation on sensitivity” value is recorded as “no shift; also recorded: unchanged”.

For the compound `CCCCN1CCCCC1C(=O)Nc1c(C)cccc1C` (centres unmarked) [Bupivacaine], the IC50 at Human Nav1.9 (setting [2]) came to 186 µM.

As to `[Cl][Cd][Cl]` [CdCl2], the “Activity on human Nav1.9 at single concentration” value (“Activity” for short) at Human Nav1.9 (100 μM) is “NA @ 100 μM”.

For `O=C(NCC1CCCCN1)c1cc(OCC(F)(F)F)ccc1OCC(F)(F)F` (centres unmarked) [Flecainide], the IC50 on Human Nav1.9 (setting [2]) is 244 µM.

For the compound `O=C(Nc1ccc(S(=O)(=O)Nc2nccs2)cc1)C(c1ccccc1)c1ccccc1` [ICA-121431], the “Activity” value on Human Nav1.9 (10 μM) is recorded as “NA @ 10 μM”.

As to `Nc1nnc(-c2cccc(Cl)c2Cl)c(N)n1` [Lamotrigine], the IC50 on Human Nav1.9 (setting [2]) amounted to 199 µM.

Turning to `CCN(CC)CC(=O)Nc1c(C)cccc1C` [Lidocaine], the values for the IC50 (at Human Nav1.9 (setting [2]); in assay [1] (same protocol as Nav1.9 WT)) were 356 µM and 5550 µM, respectively. For the same compound, the “Effect … on Nav1.9 inhibition” value in assay [1] is on record as “reduced”.

As for `Cc1cccc(C)c1OCC(C)N` (centres unmarked) [Mexiletine], the values for the IC50 (at Human Nav1.9 (setting [2]); against Human Nav1.8; in assay [1] (same protocol as Nav1.9 WT)) were 270 µM, 18 µM and 837 µM, respectively. Also, the “Effect … on Nav1.9 inhibition” value in assay [1] (setting [3]) is on record as “reduced”.

For `COCC(=O)O[C@]1(CCN(C)CCCc2nc3ccccc3[nH]2)CCc2cc(F)ccc2[C@@H]1C(C)C` [Mibefradil], on Human Nav1.9 (10 μM), the “Activity” value was “NA @ 10 μM”.

`COCCOC(=O)C1=C(C)NC(C)=C(C(=O)OC(C)C)C1c1cccc([N+](=O)[O-])c1` (centres unmarked) [Nimodipine]: the IC50 at Human Nav1.9 (setting [2]) was 33 µM.

On to `CC(=O)Nc1cccc(Nc2ncnc(N3CCC(OCc4ccc(OC(F)(F)F)cc4)CC3)n2)c1C` [TC-N 1752], for which, at Nav1.9 K799N (Nav1.9 K799N vs Nav1.9 WT), the “Decrease in potency by the K799N mutation” value was 5.6 fold and ~ 6 fold. Further, the “Effect … on Nav1.9 inhibition” value in assay [1] (setting [3]) is listed as “essentially abolished”.

As for `NC1=N[C@H](O)[C@H]2[C@H]3O[C@]4(O)O[C@@H]([C@@H](O)[C@@]2(N1)[C@@H]4O)[C@]3(O)CO` [TTX, tetrodotoxin], at Human Nav1.9, the “Activity” value was “NA @ 10 μM” and the “Sensitivity of peak inward Nav1.9 current to inhibition” value is given as “insensitive”.

With `CCCCNc1ccc(C(=O)OCCN(C)C)cc1` [Tetracaine], the IC50 was 12 µM against Mouse Nav1.9; 17 µM on Human Nav1.9 (holding potential -90 mV, read-out: IC50 for inhibition of Nav1.9 at holding potential -90 mV); 22 µM at Human Nav1.9 (holding potential -100 mV, read-out: IC50 for inhibition of Nav1.9 at holding potential -100 mV); 31.7 µM and 32 µM at Human Nav1.9 (setting [2]); 31 µM on Human Nav1.9 (holding potential -120 mV, Fig 2B holding potential series, read-out: IC50 for inhibition of Nav1.9 at holding potential -120 mV); 54 µM on Human Nav1.9 (holding potential -140 mV, read-out: IC50 for inhibition of Nav1.9 at holding potential -140 mV). Further, the IC50 at Nav1.9 K799N is 10.3 µM and 10 µM; at Human Nav1.8, 0.3 µM; in assay [1] (same protocol as Nav1.9 WT), 177 µM; at Rat Nav1.9 it was 7.6 µM. For the same compound, the “Increase in potency at the most depolarized membrane potential” value is on record as ~3 fold on Human Nav1.9 and “no more than 3 fold” at Human Nav1.9 (listed as tetracaine). Also, the “Increase in potency by the K799N mutation” value at Nav1.9 K799N (Nav1.9 K799N vs Nav1.9 WT) amounted to 3 fold. Moreover, the “Decrease in sensitivity by the N945K mutation” value at Nav1.7 N945K (Nav1.7 N945K vs Nav1.7 WT) is on record as 3 fold.
